Measurements from patent US7022688B1, “Use of 17β-dihydroequilenin as an antioxidant” (Wyeth, priority 1996, dated 2006).

Columns and labels:
[1] = tested on: oxidatively modified low density lipoprotein (LDL); test: porcine aortic endothelial cell mediated LDL oxidation assay (TBARS method); type: cell-based; conditions: pocine aortic endothelial cell mediated oxidation of LDL
Text: (§1) The antioxidant properties of 17β-dihydroequilenin were established in a standard pharmacological test procedure that measured the its ability to inhibit the formation of oxidatively modified low density lipoprotein (LDL) induced by exposure to either Cu++ ions or cultured endothelial cells (Parthasarathy S, Proc Natl Acad Sci USA 86:1046–1050 (1989)) by the TBARS (thiobarbituric acid reactive substances) method for analysis of free aldehydes (Yagi K., Biochem Med 15:212–216 (1976)).

[2] = tested on: oxidatively modified low density lipoprotein (LDL); test: inhibition of LDL oxidation induced by Cu++ ions or cultured endothelial cells (TBARS method); conditions: maximal inhibition of the process
Text: as §1

Row | SMILES | IC50 [1] | inhibition of LDL oxidation [2]
1 | C[C@]12CCc3c(ccc4cc(O)ccc34)[C@@H]1CC[C@@H]2O [17β-dihydroequilenin] | 0.315 µM | up to 100%
2 | C[C@]12CC[C@@H]3c4ccc(O)cc4CC[C@H]3[C@@H]1CCC2=O [estrone, reference compound] | 0.56 µM | 
